Results: patent US11554171B2, “Compounds and methods for the targeted degradation of bromodomain-containing proteins” (Arvinas Operations, Inc., priority 2015, dated 2023)

System: c-myc in 22RV-1 cells
Test: Human c-myc ELISA assay
Assay type: cell-based
Settings: Homo sapiens; for Emax: 22Rv1, 18 h, read-out: Degradation of BRD4: Maximum inhibition (%) c-Myc ELISA in 22RV1 cells; for DC50: 22Rv1, read-out: Degradation of BRD4: DC50 (uM) c-Myc ELISA in 22RV1 cells
Experimental: 22RV-1 cells are seeded at 30,000 cells/well at a volume of 75 μL/well in RPMI+10% FBS media in 96-well plates and grown overnight at 37 C. Cells are dosed with compounds at 4× concentration diluted in 0.4% DMSO; compounds are serially diluted 1:3 for 8-point dose curve. 25 ul of compounds is added to cells for a final concentration starting at 300 nM-0.3 nM or 1 uM-1 nM in 0.1% DMSO and incubated for 18 hrs. Media is aspirated, cells washed 1× with PBS and aspirated. Cells are lysed in 50 ul RIPA buffer (50 mM Tris pH8, 150 mM NaCl, 1% Tx-100, 0.1% SDS, 0.5% sodium deoxycholate) supplemented with protease and phosphatase inhibitors. Plates are incubated on ice for 15 minutes then centrifuged at 4 C for 10 min at 4000 rpm. Add 50 ul of cleared lysate from 96-well assay plate into 96-well c-myc ELISA plate (Novex, Life Technologies Catalog #KH02041). Reconstitute c-myc standard with standard diluent buffer; standard curve range is 333 pg/ml-0 pg/ml, diluted 1:2 for 8-point dose curve. The rest of the assay was performed following the protocol from the c-myc ELISA kit. Data is analyzed and plotted using GraphPad Prism software. Compounds described in this application were assayed and c-myc suppression potency is listed in the following Table (A: DC50<10 nM; B: DC50 10-100 nM; C: DC50: 100-1000 nM; D: DC50>1000 nM)

SMILES	Emax	DC50
Cc1ncsc1-c1ccc([C@H](C)NC(=O)[C@@H]2C[C@@H](O)CN2C(=O)[C@@H](NC(=O)c2cc3ccc(O[C@H]4C[C@H](NC(=O)C[C@@H]5N=C(c6ccc(Cl)cc6)c6c(sc(C)c6C)-n6c(C)nnc65)C4)cc3o2)C(C)(C)C)cc1 [Example 229]	100%	< 0.01 µM
Cc1ncsc1-c1ccc([C@H](C)NC(=O)[C@@H]2C[C@@H](O)CN2C(=O)[C@@H](NC(=O)COCCC(=O)N2CCN(c3ccc([C@H](C)NC(=O)C[C@@H]4N=C(c5ccc(Cl)cc5)c5c(sc(C)c5C)-n5c(C)nnc54)cc3)CC2)C(C)(C)C)cc1 [Example 48, (2S,4R)-1-[(2S)-2-{2-[3-(4-{4-[(1S)-1-{2-[(9S)-7-(4-chlorophenyl)-4,5,13-trimethyl-3-thia-1,8,11,12-tetraazatricyclo[8.3.0.0^2,^6]trideca-2(6),4,7,10,12-pentaen-9-yl]acetamido}ethyl]phenyl}piperazin-1-yl)-3-oxopropoxy]acetamido}-3,3-dimethylbutanoyl]-4-hydroxy-N-[(1S)-1-[4-(4-methyl-1,3-thiazol-5-yl)phenyl]ethyl]pyrrolidine-2-carboxamide]	98%	0.01 to 0.1 µM
Cc1ncsc1-c1ccc([C@H](C)NC(=O)[C@@H]2C[C@@H](O)CN2C(=O)[C@@H](C(C)C)n2cc(-c3cc(F)cc(OCCNC(=O)C[C@@H]4N=C(c5ccc(Cl)cc5)c5c(sc(C)c5C)-n5c(C)nnc54)c3)cn2)cc1 [Example 223]	79%	0.1 to 1 µM
Cc1ncsc1-c1ccc([C@H](C)NC(=O)[C@@H]2C[C@@H](O)CN2C(=O)[C@@H](n2cc(-c3ccnc(O[C@H]4C[C@@H](NC(=O)C[C@@H]5N=C(c6ccc(Cl)cc6)c6c(sc(C)c6C)-n6c(C)nnc65)C4)c3)cn2)C(C)(C)C)cc1 [Example 240]	97%	< 0.01 µM
Cc1ncsc1-c1ccc([C@H](C)NC(=O)[C@@H]2C[C@@H](O)CN2C(=O)C(C(C)C)n2cc(-c3cc(F)cc(O[C@@H](C)CNC(=O)C[C@@H]4N=C(c5ccc(Cl)cc5)c5c(sc(C)c5C)-n5c(C)nnc54)c3)cn2)cc1 (stereo partly drawn) [Example 208]	92%	< 0.01 µM
Cc1ncsc1-c1ccc([C@H](C)NC(=O)[C@@H]2C[C@@H](O)CN2C(=O)[C@@H](C(C)C)n2cc(-c3ccc(O[C@H]4C[C@H](NC(=O)C[C@@H]5N=C(c6ccc(Cl)cc6)c6c(sc(C)c6C)-n6c(C)nnc65)C4)nc3)cn2)cc1 [Example 268]	98%	0.01 to 0.1 µM
Cc1ncsc1-c1ccc([C@H](C)NC(=O)[C@@H]2C[C@@H](O)CN2C(=O)[C@@H](NC(=O)Cc2ccc(O[C@H]3C[C@H](NC(=O)C[C@@H]4N=C(c5ccc(Cl)cc5)c5c(sc(C)c5C)-n5c(C)nnc54)C3)cc2F)C(C)(C)C)cc1 [Example 249, (2S,4R)-1-[(2S)-2-(2-{2-fluoro-4-[(1r,3r)-3-{2-[(9S)-7-(4-chlorophenyl)-4,5,13-trimethyl-3-thia-1,8,11,12-tetraazatricyclo[8.3.0.0^2,^6]trideca-2(6),4,7,10,12-pentaen-9-yl]acetamido}cyclobutoxy]phenyl}acetamido)-3,3-dimethylbutanoyl]-4-hydroxy-N-[(1S)-1-[4-(4-methyl-1,3-thiazol-5-yl)phenyl]ethyl]pyrrolidine-2-carboxamide]	98.5%	< 0.01 µM
Cc1ncsc1-c1ccc(CNC(=O)[C@@H]2C[C@@H](O)CN2C(=O)[C@@H](NC(=O)COCCN2CCN(c3ccc([C@H](C)NC(=O)C[C@@H]4N=C(c5ccc(Cl)cc5)c5c(sc(C)c5C)-n5c(C)nnc54)cc3)CC2)C(C)(C)C)cc1 [Example 58, (2S,4R)-1-[(2S)-2-{2-[2-(4-{4-[(1S)-1-{2-[(9S)-7-(4-chlorophenyl)-4,5,13-trimethyl-3-thia-1,8,11,12-tetraazatricyclo[8.3.0.0^2,^6]trideca-2(6),4,7,10,12-pentaen-9-yl]acetamido}ethyl]phenyl}piperazin-1-yl)ethoxy]acetamido}-3,3-dimethylbutanoyl]-4-hydroxy-N-{[4-(4-methyl-1,3-thiazol-5-yl)phenyl]methyl}pyrrolidine-2-carboxamide]	88%	0.1 to 1 µM
Cc1ncsc1-c1ccc(CNC(=O)[C@@H]2C[C@@H](O)CN2C(=O)[C@@H](NC(=O)COCCN2CCN(c3ccc(CNC(=O)C[C@@H]4N=C(c5ccc(Cl)cc5)c5c(sc(C)c5C)-n5c(C)nnc54)cc3)CC2)C(C)(C)C)cc1 [Example 60]	91%	0.1 to 1 µM
Cc1ncsc1-c1ccc(CNC(=O)[C@@H]2C[C@@H](O)CN2C(=O)[C@H](c2cc(Oc3ccc(O[C@H]4C[C@@H](NC(=O)C[C@@H]5N=C(c6ccc(Cl)cc6)c6c(sc(C)c6C)-n6c(C)nnc65)C4)nc3)no2)C(C)C)cc1 [Example 324]	31.6%	> 1 µM
Cc1ncsc1-c1ccc(CNC(=O)[C@@H]2C[C@@H](O)CN2C(=O)[C@@H](C(C)C)n2cc(Oc3ccc(CNC(=O)C[C@@H]4N=C(c5ccc(Cl)cc5)c5c(sc(C)c5C)-n5c(C)nnc54)cc3)cn2)cc1 [Example 237]	13.8%	> 1 µM
Cc1ncsc1-c1ccc([C@H](C)NC(=O)[C@@H]2C[C@@H](O)CN2C(=O)[C@@H](NC(=O)Cc2ccc(O[C@H]3C[C@@H](NC(=O)C[C@@H]4N=C(c5ccc(Cl)cc5)c5c(sc(C)c5C)-n5c(C)nnc54)C3)cc2)C(C)(C)C)cc1 [Example 185, (2S,4R)-1-[(2S)-3,3-dimethyl-2-(2-{4-[(1s,35)-3-{2-[(9S)-7-(4-chlorophenyl)-4,5,13-trimethyl-3-thia-1,8,11,12-tetraatetraazatricyclo[8.3.0.0^2,^6]trideca-2(6),4,7,10,12-pentaen-9-yl]acetamido}cyclobutoxy]phenyl}acetamido)butanoyl]-4-hydroxy-N-[(1S)-1-[4-(4-methyl-1,3-thiazol-5-yl)phenyl]ethyl]pyrrolidine-2-carboxamide]	99.5%	< 0.01 µM
Cc1ncsc1-c1ccc(CNC(=O)[C@@H]2C[C@@H](O)CN2C(=O)[C@@H](C(C)C)n2cc(-c3cccc(OCCNC(=O)C[C@@H]4N=C(c5ccc(Cl)cc5)c5c(sc(C)c5C)-n5c(C)nnc54)c3)cn2)cc1 [Example 162]	7.62%	> 1 µM
Cc1ncsc1-c1ccc(CNC(=O)[C@@H]2C[C@@H](O)CN2C(=O)[C@@H](NC(=O)COCCCOCCCOc2ccc(NC(=O)C[C@@H]3N=C(c4ccc(Cl)cc4)c4c(sc(C)c4C)-n4cnnc43)cc2)C(C)(C)C)cc1 [Example 53]	56%	> 1 µM
Cc1sc2c(c1C)C(c1ccc(Cl)cc1)=N[C@@H](CC(=O)N[C@H]1C[C@@H](Oc3cccc(-c4cnn([C@@H](C(=O)N5C[C@H](O)C[C@H]5C(=O)N[C@@H](C)c5ccc(-c6nccn6C)cc5)C(C)C)c4)c3)C1)c1nnc(C)n1-2 [Example 290]	15.5%	> 1 µM
Cc1ncsc1-c1ccc([C@H](C)NC(=O)[C@@H]2C[C@@H](O)CN2C(=O)[C@@H](NC(=O)Cc2ccc(O[C@H]3C[C@@H](NC(=O)C[C@@H]4N=C(c5ccc(Cl)cc5)c5c(sc(C)c5C)-n5c(C)nnc54)C3)nc2)C(C)(C)C)cc1 [Example 270, (2S,4R)-1-[(2S)-3,3-dimethyl-2-(2-{6-[(1,3cis)-3-{2-[(9S)-7-(4-chlorophenyl)-4,5,13-trimethyl-3-thia-1,8,11,12-tetraazatricyclo[8.3.0.0^2,^6]trideca-2(6),4,7,10,12-pentaen-9-yl]acetamido}cyclobutoxy]pyridin-3-yl}acetamido)butanoyl]-4-hydroxy-N-[(1S)-1-[4-(4-methyl-1,3-thiazol-5-yl)phenyl]ethyl]pyrrolidine-2-carboxamide]	92.2%	< 0.01 µM
Cc1ncsc1-c1ccc(CNC(=O)[C@@H]2C[C@@H](O)CC2C(=O)[C@@H](NC(=O)CO[C@H]2CCN(c3ccc([C@@H](C)NC(=O)C[C@@H]4N=C(c5ccc(Cl)cc5)c5c(sc(C)c5C)-n5c(C)nnc54)cc3)C2)C(C)(C)C)cc1 (stereo partly drawn) [Example 66]	89.4%	0.01 to 0.1 µM
Cc1ncsc1-c1ccc([C@H](C)NC(=O)[C@@H]2C[C@@H](O)CN2C(=O)[C@@H](C(C)C)n2cc(-c3ccnc(N4CCN(C(=O)C[C@@H]5N=C(c6ccc(Cl)cc6)c6c(sc(C)c6C)-n6c(C)nnc65)CC4)c3)cn2)cc1 [Example 323]	43%	> 1 µM
Cc1ncsc1-c1ccc(CNC(=O)[C@@H]2C[C@@H](O)CN2C(=O)[C@H](C(C)C)n2cc(-c3cccc(O[C@@H](C)CNC(=O)C[C@@H]4N=C(c5ccc(Cl)cc5)c5c(sc(C)c5C)-n5c(C)nnc54)c3)cn2)cc1 [Example 199]	93%	< 0.01 µM
Cc1ncsc1-c1ccc([C@H](C)NC(=O)[C@@H]2C[C@@H](O)CN2C(=O)[C@@H](NC(=O)[C@H](C)OCCCOCCNC(=O)C[C@@H]2N=C(c3ccc(Cl)cc3)c3c(sc(C)c3C)-n3c(C)nnc32)C(C)(C)C)cc1 [Example 153]	92%	< 0.01 µM
Cc1ncsc1-c1ccc(CNC(=O)[C@@H]2C[C@@H](O)CN2C(=O)[C@@H](NC(=O)COCCOCCOCCCOCCOCCNC(=O)C[C@@H]2N=C(c3ccc(Cl)cc3)c3c(sc(C)c3C)-n3c(C)nnc32)C(C)(C)C)cc1 [Example 8]	95.9%	0.1 to 1 µM
